Source: PubChem BioAssay (NCI)
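Assay format: 96-well plates, 48-hour exposure. Here, GI50 denotes the concentration required for 50% inhibition of growth. TGI marks complete inhibition of growth.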 *1 amine or outer side, *2 acyl side, *3 side chain or, on linkers, in order; H or OH if unused. Where a SMILES comes first, the peptide text is derived from it. CO = O=C([*:1])[*:2]

Columns and labels:
Assay in all cases: NCI-60 cell line screen, 48 h
HT29 colon = system: HT29 colon
MALME-3M melanoma = system: MALME-3M melanoma
MDA-MB-435 = system: MDA-MB-435
OVCAR-5 ovarian = system: OVCAR-5 ovarian
SF-539 CNS = system: SF-539 CNS
SK-OV-3 ovarian = system: SK-OV-3 ovarian
SNB-19 CNS = system: SNB-19 CNS
HOP-92 NSCLC = system: HOP-92 NSCLC
RXF 393 renal = system: RXF 393 renal
UACC-257 melanoma = system: UACC-257 melanoma

| Compound | GI50 (HT29 colon) [µM] | TGI (HT29 colon) [µM] | GI50 (MALME-3M melanoma) [µM] | TGI (MALME-3M melanoma) [µM] | GI50 (MDA-MB-435) [µM] | TGI (MDA-MB-435) [µM] | GI50 (OVCAR-5 ovarian) [µM] | TGI (OVCAR-5 ovarian) [µM] | GI50 (SF-539 CNS) [µM] | TGI (SF-539 CNS) [µM] | GI50 (SK-OV-3 ovarian) [µM] | TGI (SK-OV-3 ovarian) [µM] | GI50 (SNB-19 CNS) [µM] | TGI (SNB-19 CNS) [µM] | TGI (HOP-92 NSCLC) [µM] | TGI (RXF 393 renal) [µM] | TGI (UACC-257 melanoma) [µM] | GI50 (HOP-92 NSCLC) [µM] | GI50 (UACC-257 melanoma) [µM] | GI50 (RXF 393 renal) [µM] |
| --- | --- | --- | --- | --- | --- | --- | --- | --- | --- | --- | --- | --- | --- | --- | --- | --- | --- | --- | --- | --- |
| CC1=C([Se]CC(OC(=O)[C@@H](CSSC(C)(C)C)NC(=O)C(C)(C)C)C(=O)NCCCCCC(=O)OCc2ccccc2)C(=O)c2ccccc2C1=O (stereo partly drawn) | 2.69 | 7.34 | 2.49 | 5.15 | 2.28 | 5.55 | 2.59 | 5.44 | 1.9 | 3.36 | 1.56 | 2.92 | 1.09 | 2.56 |  |  |  |  |  |  |
| C/C(=N\[N+](C)(C)C)C(c1ccccc1)C1(c2ccccc2)C(c2ccccc2)=C1c1ccccc1 (stereo not drawn) |  | > 100 |  | > 100 |  |  |  | > 100 |  | > 100 |  | > 100 |  | > 100 | > 100 | 73 | > 100 |  |  |  |
| COc1ccc2c(c1)/C(=C/c1c(-c3ccc(C)cc3)nc3sc(C)cn13)C(=O)N2 | 8.92 | > 100 | 25.2 | > 100 | 19 | > 100 | 16.6 | 87.3 | 20.3 | > 100 | 23.9 | > 100 | 20.6 | > 100 | 60.5 |  | 57.1 | 10.3 | 16.8 |  |
| O=C1CC(c2ccccc2)NCN1 (stereo not drawn) |  | > 100 |  | > 100 |  |  |  | > 100 |  |  |  | > 100 |  | > 100 |  | > 100 | > 100 |  |  |  |
| CCOC(=O)C(=O)Nc1ccc([N+](=O)[O-])cc1C#N |  | > 100 |  | > 100 |  |  |  | > 100 |  | > 100 |  | > 100 |  | > 100 | > 100 | > 100 | > 100 |  |  |  |
| O=C(CCc1ccc(O)c(O)c1)c1ccc(O)c(O)c1O |  | 84 |  | > 100 |  | 62.2 |  | 49.4 |  | 37.7 |  | > 100 |  | > 100 | 68.4 |  | > 100 |  |  |  |
| CC(=O)O[C@H]1C(=O)[C@@]2(C)[C@H]([C@H](OC(=O)c3ccccc3)[C@]3(O)C[C@H](OC(=O)[C@H](OC(=O)CCC(=O)OC4CCC(S/N=C(N)/N=C(\N)N(C)C)CC4)[C@@H](NC(=O)c4ccccc4)c4ccccc4)C(C)=C1C3(C)C)[C@]1(OC(C)=O)CO[C@@H]1C[C@@H]2O (stereo partly drawn) | < 0.005 | > 50 |  |  |  |  | 0.0272 | > 50 | 0.00847 | 0.0255 | 0.0144 | > 50 | 0.0205 | > 50 |  | > 50 | > 50 |  | 0.0846 | 0.0135 |
| COC1=CC(C)C2C[C@H]3O[C@H](O)C[C@H]4C(C)C(=O)C(O)C([C@@]2(C)C1=O)[C@@]34C (stereo partly drawn) |  | > 100 |  | > 100 |  |  |  |  |  | > 100 |  | > 100 |  |  | > 100 | > 100 | > 100 |  |  |  |
| CC(C)C(NC(=O)C(CCCN=C(N)N)NC(=O)NC(Cc1ccccc1)C(=O)O)C(=O)NC(C=O)CCCN=C(N)N (stereo not drawn) ({Phe-CO}-Arg-Val-Arg-aldehyde; configuration not given here) | > 5 | > 5 | > 5 | > 5 | > 5 | > 5 | > 5 | > 5 | > 5 | > 5 | > 5 | > 5 | > 5 | > 5 |  |  | > 5 |  | > 5 |  |
| NC1=NN(c2ccccc2)C(=O)C1C(=O)C(=O)Nc1cccc(C(F)(F)F)c1 (stereo not drawn) |  | > 100 |  | > 100 |  |  |  | > 100 |  | > 100 |  | > 100 |  | > 100 | > 100 |  | > 100 |  |  |  |
| CC(=O)[CH-]C(C)=O.CC(=O)[CH-]C(C)=O.CC(=O)[CH-]C(C)=O.[Cl-].[Hf+4] | > 100 | > 100 | > 100 | > 100 |  |  | > 100 | > 100 | > 100 | > 100 | > 100 | > 100 | > 100 | > 100 | > 100 | > 100 | > 100 | > 100 | > 100 | > 100 |
| O[C@H]1[C@H]2[C@H](O)CCCN2C[C@H]1O |  | > 100 |  | > 100 |  |  |  | > 100 |  | > 100 |  | > 100 |  | > 100 | > 100 | > 100 | > 100 |  |  |  |
